{"source": "patent US6900239B2", "about": "“Tumor chemopotentiation using isocoumarin derivatives” (ILWZ ILEX Products, Inc., priority 2000, dated 2005)", "key": {"[1]": {"conditions": "mice and dogs; cited from earlier work"}, "[2]": {"tested_on": "cultured tumor cells", "conditions": "cited from earlier work"}, "[3]": {"conditions": "in vivo; cited from earlier work"}, "[4]": {"tested_on": "transplantable mouse solid tumors", "conditions": "oral administration; cited from earlier work"}, "[5]": {"tested_on": "MDAMB-435 human breast tumor xenografts", "assay": "MDAMB-435 orthotopic model, NM-3 with paclitaxel, first study", "assay_type": "in vivo, female NCRNU nude mice", "conditions": "for % Tumor Growth Inhibition: Taxol 10 mg/kg q7d i.p. alone", "excerpt": "In order to determine the effect of the combination of NM-3 with the cytotoxic drug, paclitaxel on human breast tumor xenografts, female NCRNU nude mice were implanted with MDAMB-435 cells into the subaxillary mammary fat pad. […]"}, "[6]": {"tested_on": "MDAMB-435 human breast tumor xenografts", "assay": "MDAMB-435 orthotopic model, NM-3 with paclitaxel, second study (100 mm^3) and delivery routes", "assay_type": "in vivo, female NCRNU nude mice", "conditions": "Taxol 12.5 mg/kg q7d alone", "protocol": "In order to determine the effect of the combination of NM-3 with the cytotoxic drug, paclitaxel on human breast tumor xenografts, female NCRNU nude mice were implanted with MDAMB-435 cells into the subaxillary mammary fat pad. NM-3 was administered via intraperitoneal (i.p.) injection daily at doses ranging from 10-100 mg/kg; paclitaxel was administered via i.p. injection every 7 days, starting on day 0, at 10 mg/kg.\nIn a second study, treatment was initiated when tumor volumes reached 100 mm^3. Paclitaxel was administered at the fixed dose of 12.5 mg/kg, q7d and NM-3 was dosed at 10 and 100 mg/kg, i.p. daily for 28 days.\nA comparison was also made between different delivery routes of NM-3 in the combination studies. NM-3 given i.p. daily, bid, and continuously using Alzet mini osmotic pumps in combination with paclitaxel was evaluated for effectiveness in reducing tumor growth."}, "[7]": {"tested_on": "IMC carcinoma", "assay": "Combination with cyclophosphamide, tumor weight", "assay_type": "in vivo, CDF1 mice", "conditions": "Cyclophosphamide 300 mg/kg i.v. day 14 alone", "protocol": "To determine the effect on IMC carcinoma growth of NM-3 treatment combined with simultaneous cyclophosphamide treatment, IMC carcinoma cells (1×10^6 cells per mouse) were subcutaneously transplanted into CDF1 mice (female, 10 weeks old) in the inguinal area. NM-3 which was dissolved using 5% DMSO+Tween80, was continuously orally administered from day 1 to day 41 after transplantation except on day 14, when cyclophosphamide (300 mg/kg) was injected intravenously."}, "[8]": {"tested_on": "colon 26 adenocarcinoma", "assay": "Combination with cyclophosphamide, survival", "assay_type": "in vivo, BALB/c mice", "conditions": "Cyclophosphamide 300 mg/kg i.v. day 14 alone", "protocol": "To determine the effect on tumor growth of NM-3 treatment combined with simultaneous cyclophosphamide treatment, colon 26 adenocarcinoma cells (5×10^4 cells per mouse) were subcutaneously transplanted into BALB/c mice (female, 7 weeks old) in the inguinal area. NM-3 was continuously orally administered from day 1 to day 72 after the transplantation except on day 14 when cyclophosphamide was dosed."}, "[9]": {"tested_on": "MDAMB-435 human breast tumor xenografts", "assay": "MDAMB-435 orthotopic model, NM-3 with 5-Fluorouracil", "assay_type": "in vivo, female NCRNU nude mice", "conditions": "5-FU 10 mpk q14d; 0,14 alone", "protocol": "In order to evaluate the antitumor activity of NM-3 in combination with 5-Fluorouracil (5-FU) vs. MDAMB-435 human breast tumor xenografts, female NCRNU nude mice were implanted with MDAMB-435 cells into the subaxillary mammary fat pad. When the tumors were between 50 and 80 mm^3, NM-3 was administered via intraperitoneal (i.p.) injection daily at 10 and 100 mg/kg; 5-FU was administered via i.p. injection on days 0 and 14, at 10 mg/kg. Mice were weighed twice weekly, and tumor measurements were taken by calipers twice weekly. Mice were euthenized at the end of the treatment period. Upon termination, the mice were weighed, sacrificed and their tumors were excised.\nInitial studies were conducted with 5-FU to determine the optimal dose of this agent when administered in combination with NM-3."}, "[10]": {"tested_on": "Lewis Lung carcinoma (LLC) tumors", "assay": "Radiation sensitivity of Lewis Lung carcinoma in vivo", "design": "species or system C57BL/6 female mice", "conditions": "combined with X-ray treatment", "protocol": "To determine whether NM-3 treatment increases the radiation sensitivity of tumors in vivo, Lewis Lung carcinoma (LLC) tumors were established in C57BL/6 female mice (Frederick Cancer Research Institute) prior to NM-3 and radiation treatment. LLC cells (1×10^6 cells) were injected in the right hind limb of the mice and tumors were allowed to grow a volume of 250-350 mm^3. Tumor volumes were determined by direct measurements with calipers calculated by the formula: V=length×width×depth/2. Mice were then divided into groups and treated with NM-3 (100 mg/kg total) or PBS for two days before beginning radiation therapy. Animals then received NM-3 (25 mg/kg/day, i.p.) or PBS approximately four hours prior to radiation treatment. Tumors were irradiated using a GE Maxitron X-ray generator operating at 150 kV, 30 mA, using a 1 mm aluminum filter at a dose rate of 188 cGy/minute. Mice were shielded with lead except for the tumor-bearing area in the hind limb. Treatments and tumor measurements continued for a period of 17 days (see FIG. 4). […] Whereas control tumors reached 8 initial tumor volumes (Vo) after 8 days, X-ray treated tumors required 16 days to grow to this size. […] For comparison, data are plotted with two additional anti-angiogenic drugs, antiostatin and endostatin (see FIGS. 3B and 3C)."}, "[11]": {"tested_on": "Human umbilical vein endothelial cells (HUVEC)", "assay": "HUVEC colony formation with a constant amount of gamma radiation", "assay_type": "cell-based", "protocol": "Human umbilical vein endothelial cells (HUVEC) were exposed to a constant amount of gamma radiation in the presence or absence of various concentrations of NM-3 in the culture medium. The numbers of HUVEC colonies that formed following the different treatments were recorded and normalized to the number of colonies formed under control (no NM-3) conditions and the results are shown in FIG. 1. […] For comparison, HUVEC cells were treated with either angiostatin or endostatin, two additional anti-angiogenic proteins."}}}
{"molecule": "COc1cc(O)c2c(=O)oc(CO)cc2c1", "note": "[Cytogenin, 3-hydroxymethyl-6-methoxy-8-hydroxy-1H-2-benzopyran-1-one]", "values": [{"measurement": "Toxicity", "setting": "[1]", "result": "low toxicity"}, {"measurement": "Anti-proliferation inhibitory activity", "setting": "[2]", "result": "very low anti-proliferation inhibitory activity"}, {"measurement": "Stability", "setting": "[3]", "result": "in vivo instability"}, {"measurement": "Antitumor activity", "setting": "[4]", "result": "demonstrated antitumor activities"}]}
{"molecule": "CC(=O)O[C@H]1C(=O)[C@@]2(C)[C@H]([C@H](OC(=O)c3ccccc3)[C@]3(O)C[C@H](OC(=O)[C@H](O)[C@@H](NC(=O)c4ccccc4)c4ccccc4)C(C)=C1C3(C)C)[C@]1(OC(C)=O)CO[C@@H]1C[C@@H]2O", "note": "[Taxol, paclitaxel]", "values": [{"measurement": "Final Tumor Wt. (mg) +/− SEM", "setting": "[5]; Taxol 10 mg/kg q7d alone", "result": "215.6 ± 19.73", "unit": "mg"}, {"measurement": "Mice with Complete Shrinkage", "setting": "[5]; Taxol 10 mg/kg q7d alone, n 9", "result": 0}, {"measurement": "% Tumor Growth Inhibition", "setting": "[5]; listed as Paclitaxel", "result": "no tumor growth inhibition"}, {"measurement": "% Tumor Growth Inhibition", "setting": "[5]; listed as paclitaxel", "result": "minimal effect"}, {"measurement": "Tumor growth inhibition", "setting": "[5]; paclitaxel 20 mg/kg, single agent", "result": "significant effect on tumor growth inhibition"}, {"measurement": "% Tumor Growth Inhibition", "setting": "[6]", "result": 26.52, "unit": "%"}, {"measurement": "Final Tumor Ratio (V/Vo) +/− SEM", "setting": "[6]", "result": "4.71 ± 0.76", "unit": "V/Vo"}, {"measurement": "Mice with Complete Shrinkage", "setting": "[6]; n 9", "result": 0}]}
{"molecule": "O=P1(N(CCCl)CCCl)NCCCO1", "note": "(stereo not shown) [Cyclophosphamide, reference compound]", "values": [{"measurement": "Inhibition (%)", "setting": "[7]", "result": 70.7, "unit": "%"}, {"measurement": "Solid Weight mg ± S.D.", "setting": "[7]; day 42", "result": "3620.4 ± 1406.3", "unit": "mg"}, {"measurement": "Mean Survival Days (days ± S.D.)", "setting": "[8]", "result": "47.9 ± 13.9", "unit": "days"}, {"measurement": "T/C (%)", "setting": "[8]", "result": 145.1, "unit": "%"}, {"measurement": "T/C (%)", "setting": "[8]; listed as cyclophosphamide", "result": 145, "unit": "%"}]}
{"molecule": "O=c1[nH]cc(F)c(=O)[nH]1", "note": "[5-FU, 5-Fluorouracil, reference compound]", "values": [{"measurement": "Final Tumor Wt. (mg) +/− SEM", "setting": "[9]", "result": "259.6 ± 36.22", "unit": "mg"}]}
{"molecule": "angiostatin: 38-kDa fragment of plasminogen that selectively inhibits proliferation of endothelial cells; anti-angiogenic protein (protein, UniProt P00747 79-466, looked up, Angiostatin, anti-angiogenic protein) Angiostatin: NRKSSIIIRMRDVVLFEKKVYLSECKTGNGKNYRGTMSKTKNGITCQKWSSTSPHRPRFSPATHPSEGLEENYCRNPDNDPQGPWCYTTDPEKRYDYCDILECEEECMHCSGENYDGKISKTMSGLECQAWDSQSPHAHGYIPSKFPNKNLKKNYCRNPDRELRPWCFTTDPNKRWELCDIPRCTTPPPSSGPTYQCLKGTGENYRGNVAVTVSGHTCQHWSAQTPHTHNRTPENFPCKNLDENYCRNPDGKRAPWCHTTNSQVRWEYCKIPSCDSSPVSTEQLAPTAPPELTPVVQDCYHGDGQSYRGTSSTTTTGKKCQSWSSMTPHRHQKTPENYPNAGLTMNYCRNPDADKGPWCFTTDPSVRWEYCNLKKCSGTEASVVAPPP", "values": [{"measurement": "Radiation sensitization of tumors", "setting": "[10]", "result": "some radiation sensitization"}, {"measurement": "Inhibition of HUVEC growth compared with NM-3", "setting": "[11]", "result": "Neither angiostatin nor endostatin inhibited HUVEC growth to the extent of NM-3"}]}
{"molecule": "endostatin: anti-angiogenic protein used for comparison (protein, UniProt P39060 1572-1754, looked up, Endostatin, anti-angiogenic protein used for comparison) Endostatin: HSHRDFQPVLHLVALNSPLSGGMRGIRGADFQCFQQARAVGLAGTFRAFLSSRLQDLYSIVRRADRAAVPIVNLKDELLFPSWEALFSGSEGPLKPGARIFSFDGKDVLRHPTWPQKSVWHGSDPNGRRLTESYCETWRTEAPSATGQASSLLGGRLLGQSAASCHHAYIVLCIENSFMTASK", "values": [{"measurement": "Radiation sensitization of tumors", "setting": "[10]", "result": "did not"}, {"measurement": "Inhibition of HUVEC growth compared with NM-3", "setting": "[11]", "result": "Neither angiostatin nor endostatin inhibited HUVEC growth to the extent of NM-3"}]}
